Reference: patent publication US20230295152A1 (SENDA BIOSCIENCES, INC., priority 2019, published 2023)

Biological target: T1, AHR (Homo sapiens, UniProt P35869)
T1 construct: other cell line with a DRE-luciferase reporter stably transfected; endogenous in cells; host or cells: HepG2 AhR-Lucia reporter cells
T1 sequence (P35869 11-848): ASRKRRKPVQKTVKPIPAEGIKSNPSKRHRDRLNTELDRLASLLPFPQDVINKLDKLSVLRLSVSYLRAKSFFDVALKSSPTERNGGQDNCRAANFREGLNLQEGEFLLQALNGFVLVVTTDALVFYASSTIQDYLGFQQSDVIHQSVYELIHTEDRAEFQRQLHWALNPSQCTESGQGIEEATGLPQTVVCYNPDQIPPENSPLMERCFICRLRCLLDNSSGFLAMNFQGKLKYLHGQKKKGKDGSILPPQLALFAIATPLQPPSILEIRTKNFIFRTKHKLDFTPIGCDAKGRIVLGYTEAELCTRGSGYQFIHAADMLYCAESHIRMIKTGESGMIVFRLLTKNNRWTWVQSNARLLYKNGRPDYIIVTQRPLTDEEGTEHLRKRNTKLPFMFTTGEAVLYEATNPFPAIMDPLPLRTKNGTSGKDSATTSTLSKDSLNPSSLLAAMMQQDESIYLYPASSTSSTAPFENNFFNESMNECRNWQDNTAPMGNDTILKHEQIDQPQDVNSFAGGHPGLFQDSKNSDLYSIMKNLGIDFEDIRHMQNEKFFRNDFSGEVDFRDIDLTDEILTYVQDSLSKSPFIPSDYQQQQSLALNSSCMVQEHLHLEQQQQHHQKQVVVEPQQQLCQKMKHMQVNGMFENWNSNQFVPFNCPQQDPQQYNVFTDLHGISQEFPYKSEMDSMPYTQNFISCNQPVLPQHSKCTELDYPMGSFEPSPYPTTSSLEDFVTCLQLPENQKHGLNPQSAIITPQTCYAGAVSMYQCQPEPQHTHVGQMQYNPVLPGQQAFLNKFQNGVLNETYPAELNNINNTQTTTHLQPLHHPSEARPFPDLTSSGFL
Test: DRE-Luciferase Reporter Assay, HepG2 AhR-Lucia reporter cells
Format: cell-based
Conditions: with AHR activating ligand at EC50, read-out: HepG2-Luc IC50
Source text: AHR binds to Dioxin Responsive Elements (DRE) upstream of genes that it activates. One measure of AHR activity is activation of a reporter gene, such as luciferase, downstream of one or multiple DRE elements. Luciferase activity will reflect activation and inhibition of AHR in the cells expressing his reporter. 20000 Human HepG2 liver carcinoma—AhR-Lucia reporter cells or Human HT29 colon adenocarcinoma—AhR reporter cells or other cell line with a DRE-luciferase reporter stably transfected were plated in Eagle's Minimal Essential Medium, 10% heat-inactivated FBS, 1× non-essential amino acids Pen-Strep (10,000 U/mL) and Normocin (100 ug/mL) in plates (96-well, 384-well or other plates) and incubated overnight at 37° C. in a CO2 incubator and treated with and without AhR antagonists at a log dilution starting at 100 uM.
After 1 hr that cells were plated an AHR activating ligand, such as TCDD, kynurenine, ITE (2-(1H-indole-3-ylcarbonyl)-4-thiazolecarboxylic methyl ester), VAF347, BNF (beta-naphthoflavone), FICZ (6-formylindolo(3,2-b) carbazole) or other AHR ligands at their specific EC50 concentration, were added to the cells with or without AHR antagonist.
Cells were incubated for 24 or 48 hours or another time point and then, supernatant was analyzed for determination of luciferase activity as a read-out of the AHR activation or inhibition. Luciferase was measured with the commercial kit QUANTI-Luc™ assay solution kit from Invivogen following the manufacturer's instructions.
The level of luciferase with only agonist ligand added was the maximum signal while the luciferase with […] was the minimum signal. IC50 values were determined as the concentration which inhibits half of the luciferase activity.

Row | Compound | IC50 [nM]
1 | O=c1c2cc(-c3cccnc3)nc(-c3cccnc3)c2ncn1CC(O)C(F)(F)F (stereo not shown) [Compound 10] | 100 to 500
2 | Cc1ncccc1-c1nc(-c2ccc(C(F)(F)F)nc2)cc2c(=O)n([C@@H](C)CO)cnc12 [Compound 63] | 100 to 500
3 | C[C@@H](CO)n1cnc2c(C3=CCCCC3)nc(-c3ccc(C(F)(F)F)cn3)cc2c1=O [Compound 188, (S)-8-(cyclohex-1-en-1-yl)-3-(1-hydroxypropan-2-yl)-6-(5-(trifluoromethyl)pyridin-2-yl)pyrido[3,4-d]pyrimidin-4(3H)-one] | 100 to 500
4 | Cc1cc(C(F)(F)F)ncc1-c1cc2c(=O)n([C@@H](C)CO)cnc2c(-c2cccnc2)n1 [Compound 75] | 100 to 500
5 | C[C@@H](n1cnc2c(-c3cccc(F)c3)nc(-c3ccc(Cl)cc3)cc2c1=O)C(C)(C)O [Compound 39] | < 100
6 | O=c1c2cc(-c3ccc(Cl)cc3)nc(-c3cccc(F)c3)c2ncn1C[C@@H](O)C(F)(F)F (stereo in doubt) [Compound 42] | < 100
7 | Cc1ccc(-c2cc3c(=O)n([C@@H](C)COCc4ccccc4)cnc3c(-c3cccc(F)c3)n2)cc1 [Compound 40, 3-[(1S)-2-benzyloxy-1-methyl-ethyl]-8-(3-fluorophenyl)-6-(p-tolyl)pyrido[3,4-d]pyrimidin-4-one] | > 500
8 | Cn1cc(-c2nc(-c3ccc(Cl)cc3)cc3c(=O)n([C@@H]4COC[C@H]4O)cnc23)cn1 [Compound 153, 6-(4-Chlorophenyl)-3-((3R,4S)-4-hydroxytetrahydrofuran-3-yl)-8-(1-methyl-1H-pyrazol-4-yl)pyrido[3,4-d]pyrimidin-4(3H)-one] | < 100
9 | C[C@@H](CO)n1cnc2c(-c3ccncc3)nc(-c3ccc(C(F)(F)F)nc3)cc2c1=O [Compound 4] | 100 to 500
10 | CC(C)[C@@H](CO)n1cnc2c(-c3cccc(F)c3)nc(-c3ccc(Cl)cc3)cc2c1=O [Compound 90] | < 100
11 | C[C@@H](CO)n1cnc2c(-c3cccnc3)nc(Cl)cc2c1=O [Compound 11, (S)-6-chloro-3-(1-hydroxypropan-2-yl)-8-(pyridin-3-yl)pyrido[3,4-d]pyrimidin-4(3H)-one] | > 500
12 | C[C@@H](CO)n1cnc2c(-n3cncn3)nc(-c3ccc(C(F)(F)F)nc3)cc2c1=O [Compound 164, (S)-3-(1-hydroxypropan-2-yl)-8-(1H-1,2,4-triazol-1-yl)-6-(6-(trifluoromethyl)pyridin-3-yl)pyrido[3,4-d]pyrimidin-4(3H)-one] | 100 to 500
13 | C[C@@H](CO)n1cnc2c(-c3cncc(F)c3)nc(-c3ccc(C(F)(F)F)cc3)cc2c1=O [Compound 5] | < 100
14 | O=c1[nH]cnc2c(-c3cccnc3)nc(-c3ccc(C(F)(F)F)nc3)cc12 [Compound 119, 8-(pyridin-3-y1)-6-(6-(trifluoromethyl)pyridin-3-yl)pyrido[3,4-d]pyrimidin-4(3H)-one] | < 100
15 | Cc1ccncc1-c1nc(-c2ccc(C(F)(F)F)nc2)cc2c(=O)n([C@@H](C)CO)cnc12 [Compound 64] | > 500
16 | O=c1c2cc(-c3ccc(C(F)(F)F)nc3)nc(-c3cccnc3)c2ncn1[C@@H]1CCS(=O)(=O)C1 [Compound 107, (R)-3-(1,1-dioxidotetrahydrothiophen-3-yl)-8-(pyridin-3-yl)-6-(6-(trifluoromethyl)pyridin-3-yl)pyrido[3,4-d]pyrimidin-4(3H)-one] | < 100
17 | C[C@@H](CO)n1cnc2c(-c3ccc(=O)n(C)c3)nc(-c3ccc(Cl)cc3)cc2c1=O [Compound 73] | > 500

Row | Compound | IC50 [nM]
18 | Cn1cc(-c2nc(-c3ccc(C(F)(F)F)cn3)cc3c(=O)n([C@@H]4COC[C@H]4O)cnc23)cn1 [Compound 138, 3-((3R,4S)-4-hydroxytetrahydrofuran-3-yl)-8-(1-methyl-1H-pyrazol-4-yl)-6-(5-(trifluoromethyl)pyridin-2-yl)pyrido[3,4-d]pyrimidin-4(3H)-one] | < 100
19 | C[C@@H](CO)n1cnc2c(-c3cccnc3)nc(N3CCCCC3)cc2c1=O [Compound 100] | > 500
20 | CC(C)(O)Cn1cnc2c(-c3cn[nH]c3)nc(-c3ccc(C(F)(F)F)cn3)cc2c1=O [Compound 159, 3-(2-hydroxy-2-methylpropyl)-8-(1H-pyrazol-4-yl)-6-(5-(trifluoromethyl)pyridin-2-yl)pyrido[3,4-d]pyrimidin-4(3H)-one] | < 100
21 | C[C@@H](CO)n1cnc2c(-c3cnn(C)c3)nc(-c3cccnc3)cc2c1=O [Compound 76] | 100 to 500
22 | C[C@@H](C(=O)N[C@@H]1COC[C@H]1O)n1cnc2c(-c3cccnc3)nc(-c3ccc(C(F)(F)F)nc3)cc2c1=O [Compound 158, (S)—N-((3R,4S)-4-hydroxytetrahydrofuran-3-yl)-2-(4-oxo-8-(pyridin-3-yl)-6-(6-(trifluoromethyl)pyridin-3-yl)pyrido[3,4-d]pyrimidin-3(4H)-yl)propenamide] | 100 to 500
23 | C[C@@H](CO)n1cnc2c(N3CCCC3)nc(-c3ccc(C(F)(F)F)nc3)cc2c1=O [Compound 176, (S)-3-(1-hydroxypropan-2-yl)-8-(pyrrolidin-1-yl)-6-(6-(trifluoromethyl)pyridin-3-yl)pyrido[3,4-d]pyrimidin-4(3H)-one] | < 100
24 | C[C@@H](CO)n1cnc2c(-c3cnn(C)c3)nc(-c3ccccc3)cc2c1=O [Compound 26] | 100 to 500
25 | C[C@@H](CO)n1cnc2c(-c3ccccn3)nc(-c3ccc(C(F)(F)F)nc3)cc2c1=O [Compound 180, (S)-3-(1-hydroxypropan-2-yl)-8-(pyridin-2-yl)-6-(6-(trifluoromethyl)pyridin-3-yl)pyrido[3,4-d]pyrimidin-4(3H)-one] | 100 to 500
26 | COC(=O)[C@H](C)n1cnc2c(-c3cccnc3)nc(-c3ccc(C(F)(F)F)nc3)cc2c1=O [Compound 127, Methyl (S)-2-(4-oxo-8-(pyridin-3-yl)-6-(6-(trifluoromethyl)pyridin-3-yl)pyrido[3,4-d]pyrimidin-3(4H)-yl)propanoate] | < 100
27 | C[C@@H](CO)n1cnc2c(C3CCCCC3)nc(-c3ccc(C(F)(F)F)cn3)cc2c1=O [Compound 189, (S)-8-cyclohexyl-3-(1-hydroxypropan-2-yl)-6-(5-(trifluoromethyl)pyridin-2-yl)pyrido[3,4-d]pyrimidin-4(3H)-one] | > 500
28 | CC(C)(O)Cn1cnc2c(-c3cnn(C(F)(F)F)c3)nc(-c3ccc(C(F)(F)F)nc3)cc2c1=O [Compound 94] | < 100
29 | O=c1c2cc(-c3ccc(C(F)(F)F)nc3)nc(-c3cccnc3)c2ncn1C1CCCC1 [Compound 132, 3-cyclopentyl-8-(pyridin-3-yl)-6-(6-(trifluoromethyl)pyridin-3-yl)pyrido[3,4-d]pyrimidin-4(3H)-one] | < 100
30 | Cc1cc(Cl)ccc1-c1cc2c(=O)n(CC(C)(C)O)cnc2c(-c2cnn(C)c2)n1 [Compound 61] | 100 to 500
31 | Cn1cc(-c2nc(-c3ccc(Cl)cc3)cc3c(=O)n([C@@H]4COC[C@@H]4O)cnc23)cn1 [Compound 131, 6-(4-chlorophenyl)-3-((3R,4R)-4-hydroxytetrahydrofuran-3-yl)-8-(1-methyl-1H-pyrazol-4-yl)pyrido[3,4-d]pyrimidin-4(3H)-one] | < 100
32 | COCCc1cc2c(=O)n([C@@H](C)CO)cnc2c(-c2cccnc2)n1 [Compound 192, (S)-3-(1-hydroxypropan-2-yl)-6-(2-methoxyethyl)-8-(pyridin-3-yl)pyrido[3,4-d]pyrimidin-4(3H)-one] | > 500
33 | C[C@@H](CO)n1cnc2c(-c3cccnc3)nc(-c3cccnc3)cc2c1=O [Compound 20] | 100 to 500
34 | C[C@@H](C(=O)N(C)C)n1cnc2c(-c3cccnc3)nc(-c3ccc(C(F)(F)F)nc3)cc2c1=O [Compound 157, (S)—N,N-dimethyl-2-(4-oxo-8-(pyridin-3-yl)-6-(6-(trifluoromethyl)pyridin-3-yl)pyrido[3,4-d]pyrimidin-3(4H)-yl)propenamide] | < 100
